Values after ≈ are worked out from the molar mass of the structure shown.
Columns and labels:
MCF7 [1] = assay: Cytotoxicity against human MCF7 cells assessed as reduction in cell growth measured after 48 hrs by MTT assay; format: functional, cell-based; conditions: MCF7, 48 h
HeLa [2] = assay: Cytotoxicity against human HeLa cells assessed as reduction in cell growth measured after 48 hrs by MTT assay; format: functional, cell-based
A549 [3] = assay: Cytotoxicity against human A549 cells assessed as reduction in cell growth measured after 48 hrs by MTT assay; format: functional, cell-based; conditions: A549, 48 h
Caco-2 = assay: Cytotoxicity against human Caco-2 cells assessed as reduction in cell viability incubated for 72 hrs by MTT assay; format: functional, cell-based; conditions: Caco-2, 72 h
MCF7 [4] = assay: Antiproliferative activity against human MCF7 cells assessed as cell growth inhibition; format: functional, cell-based
A549 [5] = assay: Cytotoxicity against human A549 cells assessed as reduction in cell growth by MTT assay; format: functional, cell-based
A549 [6] = assay: Antiproliferative activity against human A549 cells assessed as reduction in cell viability by MTS assay; format: functional, cell-based
BT-20 = assay: Anticancer activity against human BT-20 cells assessed as cell growth inhibition; format: functional, cell-based
HepG2 [7] = assay: Antiproliferative activity against human HepG2 cells assessed as reduction in cell viability incubated for 72 hrs by MTT assay; format: functional, cell-based; conditions: HepG2, 72 h
Vero = assay: Cytotoxicity against African green monkey Vero cells incubated for 24 hrs by CellTiter-Glo assay; format: toxicity, cell-based, Chlorocebus sabaeus
MCF7 [8] = assay: Anticancer activity against human MCF7 cells assessed as reduction in cell viability by MTT assay; format: functional, cell-based
HCT-116 = assay: Anticancer activity against human HCT-116 cells assessed as reduction in cell viability by MTT assay; format: functional, cell-based
A549 [9] = assay: Antiproliferative activity against human A549 cells assessed as cell growth inhibition measured after 48 hrs by MTT assay; format: functional, cell-based; conditions: A549, 48 h
HT-29 = assay: Antiproliferative activity against human HT-29 cells assessed as cell growth inhibition measured after 48 hrs by MTT assay; format: functional, cell-based; conditions: HT-29, 48 h
HeLa [10] = assay: Cytotoxicity against human HeLa cells assessed as reduction in cell growth by MTT assay; format: functional, cell-based
HepG2 [11] = assay: Anticancer activity against human HepG2 cells assessed as reduction in cell viability by MTT assay; format: functional, cell-based
HeLa [12] = assay: Anticancer activity against human HeLa cells assessed as reduction in cell viability measured after 72 hrs by MTT assay; format: functional, cell-based
MCF7 [13] = assay: Anticancer activity against human MCF7 cells assessed as reduction in cell viability measured after 72 hrs by MTT assay; format: functional, cell-based; conditions: MCF7, 72 h
HeLa [14] = assay: Antiproliferative activity against human HeLa cells assessed as reduction in cell viability; format: functional, cell-based
AGS = assay: Growth inhibition of human AGS cells assessed as reduction in cell viability measured after 3 days by CCK-8 assay; format: functional; conditions: 72 h, time 3 day
[15] = system: KATO III stomach cancer cell line; assay: Growth inhibition of human KATO III stomach cancer cell line assessed as reduction in cell viability measured after 3 days by CCK-8 assay; format: functional; conditions: 72 h, time 3 day
SNU1 = assay: Growth inhibition of human SNU1 cells assessed as reduction in cell viability measured after 3 days by CCK-8 assay; format: functional; conditions: SNU1, 72 h, time 3 day
SK-OV-3 = assay: Growth inhibition of human SK-OV-3 cells assessed as reduction in cell viability measured after 3 days by CCK-8 assay; format: functional; conditions: SK-OV-3, 72 h, time 3 day
OVCAR-8 = assay: Growth inhibition of human OVCAR-8 cells assessed as reduction in cell viability measured after 3 days by CCK-8 assay; format: functional; conditions: OVCAR-8, 72 h, time 3 day
BXPC-3 = assay: Growth inhibition of human BXPC-3 cells assessed as reduction in cell viability measured after 3 days by CCK-8 assay; format: functional; conditions: BXPC-3, 72 h, time 3 day
PANC-1 = assay: Growth inhibition of human PANC-1 cells assessed as reduction in cell viability measured after 3 days by CCK-8 assay; format: functional; conditions: PANC-1, 72 h, time 3 day
T-24 = assay: Growth inhibition of human T24 cells assessed as reduction in cell viability measured after 3 days by CCK-8 assay; format: functional; conditions: T-24, 72 h, time 3 day
WiDr = assay: Growth inhibition of human WiDr cells assessed as reduction in cell viability measured after 3 days by CCK-8 assay; format: functional; conditions: 72 h, time 3 day
HepG2 [16] = assay: Growth inhibition of human HepG2 cells assessed as reduction in cell viability measured after 3 days by CCK-8 assay; format: functional; conditions: HepG2, 72 h, time 3 day
SN12C = assay: Growth inhibition of human SN12C cells assessed as reduction in cell viability measured after 3 days by CCK-8 assay; format: functional; conditions: 72 h, time 3 day
K562 [17] = assay: Growth inhibition of human K562 cells assessed as reduction in cell viability measured after 3 days by CCK-8 assay; format: functional; conditions: K562, 72 h, time 3 day
HeLa [18] = assay: Growth inhibition of human HeLa cells assessed as reduction in cell viability measured after 3 days by CCK-8 assay; format: functional; conditions: 72 h, time 3 day
K562 [19] = assay: Cytotoxicity against human K562 cells assessed as reduction in cell viability incubated for 72 hrs by MTT assay; format: functional, cell-based; conditions: K562, 72 h
DU-145 [20] = assay: Anticancer activity against human DU-145 cells assessed as cell growth inhibition; format: functional, cell-based
[21] = Anticancer activity against human SK-MEL-128 cells assessed as cell growth inhibition; format: functional, cell-based
4T1 = assay: Cytotoxicity against mouse 4T1 cells assessed as inhibition of cell proliferation incubated for 72 hrs by MTT assay; format: functional, cell-based; conditions: 4T1, 72 h
DU-145 [22] = assay: Anticancer activity against human DU-145 cells assessed as cell growth inhibition by MTT assay; format: functional, cell-based

Q: Which IC50 (MCF7 [1]) does the source give for `COc1ccc2oc(=O)c(/C=C3\SC(=O)N(C(=O)c4ccc(Cl)cc4)C3=O)cc2c1` here?
A: Its IC50 is 950 nM.

Q: What about the IC50 (HeLa [2]) of the same compound?
A: Its IC50 is 950 nM.

Q: And the IC50 (A549 [3])?
A: The IC50 was 950 nM.

Q: Which IC50 (Caco-2) does the source give for `COc1ccccc1-c1cn(Cc2cc(=O)oc3cc(O)c(O)cc23)nn1` here?
A: Its IC50 is 9700 nM.

Q: For `O=C1CCn2cc(nn2)CCOc2ccccc2C(C(=O)c2cc3ccccc3oc2=O)N1` (configuration not stated), which IC50 (MCF7 [4]) is on record?
A: The IC50 was 49000 nM.

Q: Which IC50 (A549 [5]) does the source give for `Cc1c(Cc2ccc(NC(=O)Nc3ccccc3Cl)nc2)c(=O)oc2cc(O)c(C(C)(C)C)cc12` here?
A: The IC50 was 4380 nM.

Q: For `Nn1c(Cc2ccc(Cl)cc2)nn(CC(=O)NNC(=O)c2cc3cc(Cl)cc(Cl)c3oc2=O)c1=O`, which IC50 (A549 [6]) is on record?
A: Its IC50 is 7.5 µg/mL (≈ 13.9 µM).

Q: Which IC50 (BT-20) does the source give for `Nn1c(Cc2ccccc2Br)nn(CC(=O)NNC(=O)c2cc3cc(Cl)cc(Cl)c3oc2=O)c1=O` here?
A: Its IC50 is 6.4 µg/mL (≈ 11 µM).

Q: With `O=c1cc(OCc2cc(-c3cc4c(cc3Cl)OCO4)no2)c2cc(Cl)ccc2o1` as the compound, how does the IC50 (HepG2 [7]) read?
A: Its IC50 is 12800 nM.

Q: What about the IC50 (Vero) of the same compound?
A: The IC50 was 144000 nM.

Q: Which results are given for `O=C(CSc1nnc(NC(=O)c2ccccc2)s1)Nc1ccc2oc(=O)ccc2c1`?
A: IC50 (MCF7 [8]): 54.9 µg/mL (≈ 125 µM); IC50 (HCT-116): 30.7 µg/mL (≈ 70 µM)

Q: For `O=c1oc2ccccc2cc1-c1nc(Nc2c3ccccc3nc3ccc(F)cc23)cs1`, which IC50 (A549 [9]) is on record?
A: Its IC50 is 5180 nM.

Q: What about the IC50 (HT-29) of the same compound?
A: Its IC50 is 23100 nM.

Q: For `Cc1c(Cc2ccc(NC(=O)Nc3cccc(Cl)c3)nc2)c(=O)oc2cc(O)c(C(C)(C)C)cc12`, which IC50 (HeLa [10]) is on record?
A: The IC50 was 2170 nM.

Q: With `COc1ccc(C(=O)Nc2nnc(SCC(=O)Nc3ccc4oc(=O)ccc4c3)s2)cc1` as the compound, how does the IC50 (HepG2 [11]) read?
A: Its IC50 is 24.9 µg/mL (≈ 53.1 µM).

Q: What does the source list for `O=C(NCCOCc1no[n+]([O-])c1S(=O)(=O)c1ccccc1)c1cc2ccccc2oc1=O`?
A: IC50 (HeLa [12]): 880 nM; IC50 (MCF7 [13]): 610 nM

Q: For `CCOC(=O)c1sc(N/N=C(\C)c2cc3cc(Br)ccc3oc2=O)nc1C`, which IC50 (HeLa [14]) is on record?
A: The IC50 was 9 nM.

Q: Which GI50 (AGS) does the source give for `CCN(CC)c1ccc2cc(-c3nc4ccccc4n3C)c(=O)oc2c1` here?
A: The GI50 was under 410 nM.

Q: And the GI50 [15]?
A: The GI50 was under 410 nM.

Q: And the GI50 (SNU1)?
A: The GI50 was under 410 nM.

Q: And the GI50 (SK-OV-3)?
A: Its GI50 is under 410 nM.

Q: What about the GI50 (OVCAR-8) of the same compound?
A: Its GI50 is under 410 nM.

Q: And the GI50 (BXPC-3)?
A: The GI50 was under 410 nM.

Q: What about the GI50 (PANC-1) of the same compound?
A: Its GI50 is under 410 nM.

Q: And the GI50 (T-24)?
A: The GI50 was under 410 nM.

Q: And the GI50 (WiDr)?
A: The GI50 was under 410 nM.

Q: What about the GI50 (HepG2 [16]) of the same compound?
A: The GI50 was under 410 nM.

Q: And the GI50 (SN12C)?
A: Its GI50 is under 410 nM.

Q: What about the GI50 (K562 [17]) of the same compound?
A: Its GI50 is under 410 nM.

Q: What about the GI50 (HeLa [18]) of the same compound?
A: The GI50 was under 410 nM.

Q: Which IC50 (K562 [19]) does the source give for `COc1cccc(-c2cn(Cc3cc(=O)oc4cc(O)c(O)cc34)nn2)c1` here?
A: The IC50 was 17900 nM.

Q: Which results are given for `Nn1c(Cc2ccc(Cl)c(Cl)c2)nn(CC(=O)NNC(=O)c2cc3cc(Cl)ccc3oc2=O)c1=O`?
A: IC50 (DU-145 [20]): 3.7 µg/mL (≈ 6.88 µM); IC50 [21]: 12.3 µg/mL (≈ 22.9 µM)

Q: With `O=C(Cc1cc(=O)oc2cc(O)ccc12)NCCCCCCCCNc1c2c(nc3ccccc13)CCCC2` as the compound, how does the IC50 (4T1) read?
A: Its IC50 is 7000 nM.

Q: For `CC(C)(C)c1cc(C(C)(C)C)c2oc(=O)c(-c3csc(-n4nc(-c5ccccc5)cc4N)n3)cc2c1`, which IC50 (DU-145 [22]) is on record?
A: The IC50 was 7000 nM.
